In ChEMBL document CHEMBL1154652, “N-(4-(6,7-Disubstituted-quinolin-4-yloxy)-3-fluorophenyl)-2-oxo-3-phenylimidazolidine-1-carboxamides: a novel series of dual c-Met/VEGFR2 receptor tyrosine kinase inhibitors” (Bioorg Med Chem Lett, 2009):
pIC50: −log10 of the molar value. Calls of active or inactive are those of the source. No cut-off for these calls is given here.

Experiments:
[1] = target: T1, Hepatocyte growth factor receptor (Homo sapiens, UniProt P08581); assay: Inhibition of GST-tagged c-Met expressed in Sf9 cells
Target sequence in this assay (P08581 whole entry): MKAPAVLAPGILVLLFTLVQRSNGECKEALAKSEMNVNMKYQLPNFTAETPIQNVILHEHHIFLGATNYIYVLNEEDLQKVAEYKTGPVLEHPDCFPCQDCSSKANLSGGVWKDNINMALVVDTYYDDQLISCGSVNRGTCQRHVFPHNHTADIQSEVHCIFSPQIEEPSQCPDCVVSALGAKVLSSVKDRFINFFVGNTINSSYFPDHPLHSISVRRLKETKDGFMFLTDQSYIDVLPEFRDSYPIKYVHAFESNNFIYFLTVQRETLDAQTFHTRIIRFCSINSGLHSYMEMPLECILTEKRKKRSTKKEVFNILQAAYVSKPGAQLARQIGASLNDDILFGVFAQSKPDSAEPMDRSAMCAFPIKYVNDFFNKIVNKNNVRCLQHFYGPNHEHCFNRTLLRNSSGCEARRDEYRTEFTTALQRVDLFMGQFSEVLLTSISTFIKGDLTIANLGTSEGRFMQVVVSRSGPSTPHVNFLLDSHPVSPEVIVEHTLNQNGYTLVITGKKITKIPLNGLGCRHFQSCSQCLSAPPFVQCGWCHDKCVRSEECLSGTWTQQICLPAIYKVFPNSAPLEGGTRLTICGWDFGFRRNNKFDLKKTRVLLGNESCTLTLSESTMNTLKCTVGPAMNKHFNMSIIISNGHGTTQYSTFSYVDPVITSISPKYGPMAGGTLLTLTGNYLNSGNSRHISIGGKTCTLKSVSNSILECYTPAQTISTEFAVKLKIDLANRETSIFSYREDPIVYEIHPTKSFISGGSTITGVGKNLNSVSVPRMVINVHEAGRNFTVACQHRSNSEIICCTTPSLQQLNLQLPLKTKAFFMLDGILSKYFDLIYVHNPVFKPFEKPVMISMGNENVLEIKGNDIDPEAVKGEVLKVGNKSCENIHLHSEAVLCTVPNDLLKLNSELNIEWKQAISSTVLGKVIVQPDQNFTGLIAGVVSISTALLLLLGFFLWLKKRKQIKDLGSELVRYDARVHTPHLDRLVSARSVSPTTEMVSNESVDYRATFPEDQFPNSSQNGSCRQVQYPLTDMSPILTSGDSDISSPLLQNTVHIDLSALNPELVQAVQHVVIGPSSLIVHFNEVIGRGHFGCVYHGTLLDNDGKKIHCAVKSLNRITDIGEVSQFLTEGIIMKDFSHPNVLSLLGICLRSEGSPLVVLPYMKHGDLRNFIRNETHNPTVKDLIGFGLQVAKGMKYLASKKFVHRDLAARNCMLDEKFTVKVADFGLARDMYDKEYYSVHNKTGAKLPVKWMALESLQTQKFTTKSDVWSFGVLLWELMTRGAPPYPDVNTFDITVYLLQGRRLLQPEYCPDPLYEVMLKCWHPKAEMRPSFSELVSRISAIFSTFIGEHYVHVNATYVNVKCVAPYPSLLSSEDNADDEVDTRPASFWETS

[2] = target: T1, Hepatocyte growth factor receptor; assay: Inhibition of TPR-Met assessed as autophosphorylation; conditions: for pIC50: read-out: IC50
Target sequence in this assay (P08581 25-1390 limits assumed): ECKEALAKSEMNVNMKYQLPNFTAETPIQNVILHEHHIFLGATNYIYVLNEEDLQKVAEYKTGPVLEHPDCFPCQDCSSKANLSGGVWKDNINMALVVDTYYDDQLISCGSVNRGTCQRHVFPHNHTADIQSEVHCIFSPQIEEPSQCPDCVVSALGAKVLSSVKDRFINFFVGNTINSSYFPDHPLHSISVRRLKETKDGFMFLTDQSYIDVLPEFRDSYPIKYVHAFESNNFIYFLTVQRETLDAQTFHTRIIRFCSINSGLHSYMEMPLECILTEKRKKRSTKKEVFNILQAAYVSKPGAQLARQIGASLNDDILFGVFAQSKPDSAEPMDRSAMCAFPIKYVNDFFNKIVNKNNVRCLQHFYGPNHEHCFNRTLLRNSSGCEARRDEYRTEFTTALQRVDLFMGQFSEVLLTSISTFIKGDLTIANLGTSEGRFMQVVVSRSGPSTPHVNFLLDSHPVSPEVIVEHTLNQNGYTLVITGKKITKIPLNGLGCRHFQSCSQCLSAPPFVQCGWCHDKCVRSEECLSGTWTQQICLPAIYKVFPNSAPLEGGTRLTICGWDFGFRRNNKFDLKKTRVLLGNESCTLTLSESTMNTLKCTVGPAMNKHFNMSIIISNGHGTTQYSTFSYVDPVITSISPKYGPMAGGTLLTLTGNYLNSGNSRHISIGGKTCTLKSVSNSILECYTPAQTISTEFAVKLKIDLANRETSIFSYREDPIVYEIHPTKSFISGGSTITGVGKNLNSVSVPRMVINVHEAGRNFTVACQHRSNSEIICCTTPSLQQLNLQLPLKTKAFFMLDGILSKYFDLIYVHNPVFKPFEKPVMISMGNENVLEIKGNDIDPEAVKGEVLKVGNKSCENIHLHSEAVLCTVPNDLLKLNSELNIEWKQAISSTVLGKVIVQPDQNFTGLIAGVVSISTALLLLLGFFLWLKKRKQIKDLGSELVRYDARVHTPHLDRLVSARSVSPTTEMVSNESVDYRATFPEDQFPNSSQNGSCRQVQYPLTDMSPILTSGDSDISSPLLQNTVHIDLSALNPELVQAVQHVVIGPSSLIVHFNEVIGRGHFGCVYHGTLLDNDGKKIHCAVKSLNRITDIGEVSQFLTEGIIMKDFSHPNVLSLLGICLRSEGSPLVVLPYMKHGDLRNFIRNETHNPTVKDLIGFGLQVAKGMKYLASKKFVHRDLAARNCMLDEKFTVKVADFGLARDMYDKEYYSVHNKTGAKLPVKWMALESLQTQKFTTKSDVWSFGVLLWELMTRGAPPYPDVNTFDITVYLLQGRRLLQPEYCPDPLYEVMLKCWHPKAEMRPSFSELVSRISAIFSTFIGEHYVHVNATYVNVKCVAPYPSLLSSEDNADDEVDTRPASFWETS

[3] = Inhibition of GST-tagged VEGFR expressed in Sf9 cells
[4] = target: Cyclin-dependent kinase 2/cyclin E (Homo sapiens) (UniProt P24864+P24941+O96020); assay: Inhibition of CDK2/cyclin E at 100 uM; assay type: protein-complex assay
[5] = target: ALK tyrosine kinase receptor (Homo sapiens) (UniProt Q9UM73); assay: Inhibition of ALK at 100 uM
[6] = target: Vascular endothelial growth factor receptor 2 (Homo sapiens) (UniProt P35968); assay: Inhibition of VEGFR2 at 100 uM
[7] = target: Tyrosine-protein kinase JAK3 (Homo sapiens) (UniProt P52333); assay: Inhibition of JAK3 at 100 uM
[8] = target: Epidermal growth factor receptor (Homo sapiens) (UniProt P00533); assay: Inhibition of EGFR at 100 uM
[9] = target: Serine/threonine-protein kinase Chk1 (Homo sapiens) (UniProt O14757); assay: Inhibition of CHK1 at 100 uM
[10] = target: Dual specificity mitogen-activated protein kinase kinase 1 (Homo sapiens) (UniProt Q02750); assay: Inhibition of MEK1 at 100 uM
[11] = target: Vascular endothelial growth factor receptor 1 (Homo sapiens) (UniProt P17948); assay: Inhibition of VEGFR1 at 100 uM
[12] = target: Proto-oncogene tyrosine-protein kinase Src (Homo sapiens) (UniProt P12931); assay: Inhibition of c-SRC at 100 uM
HUVEC [13] = assay: Inhibition of VEGF-stimulated proliferation of HUVEC cells; assay type: functional, cell-based; conditions: Homo sapiens
[14] = Inhibition of VEGF-induced ERK phosphorylation in HUVEC; assay type: cell-based; conditions: Homo sapiens
[15] = Half life in rat; assay type: ADME, organism-based; conditions: in vivo
HMEC = assay: Antiproliferative activity against human HMEC cells after 72 hrs by MTT assay; assay type: functional, cell-based
[16] = target: Angiopoietin-1 receptor (Homo sapiens) (UniProt Q02763); assay: Inhibition of Tie-2 at 100 uM
[17] = target: Platelet-derived growth factor receptor alpha (Homo sapiens) (UniProt P16234); assay: Inhibition of PDGFRalpha at 100 uM
HUVEC [18] = assay: Antiangiogenic activity against HUVEC cell assessed as inhibition of VEGF-dependent tubule formation; assay type: functional, Homo sapiens
[19] = target: Macrophage-stimulating protein receptor (Homo sapiens) (UniProt Q04912); assay: Inhibition of Ron at 100 uM
[20] = target: Tyrosine-protein kinase JAK2 (Homo sapiens) (UniProt O60674); assay: Inhibition of JAK2 at 100 uM
[21] = target: T1, Hepatocyte growth factor receptor; assay: Inhibition of Met at 100 uM
Target sequence in this assay (P08581 whole entry): as the sequence (P08581 whole entry) above

[22] = target: Proto-oncogene tyrosine-protein kinase receptor Ret (Homo sapiens) (UniProt P07949); assay: Inhibition of Ret at 100 uM
[23] = target: Glycogen synthase kinase-3 beta (Homo sapiens) (UniProt P49841); assay: Inhibition of GSK3-beta at 100 uM
[24] = target: Mast/stem cell growth factor receptor Kit (Homo sapiens) (UniProt P10721); assay: Inhibition of c-kit at 100 uM
[25] = target: Aurora kinase A (Homo sapiens) (UniProt O14965); assay: Inhibition of Aurora A at 100 uM
[26] = target: Inhibitor of nuclear factor kappa-B kinase subunit beta (Homo sapiens) (UniProt O14920); assay: Inhibition of IKK-beta at 100 uM
[27] = Bioavailability in rat; assay type: ADME, organism-based; conditions: in vivo
[28] = target: High affinity nerve growth factor receptor (Homo sapiens) (UniProt P04629); assay: Inhibition of TrkA at 100 uM
[29] = target: Receptor-type tyrosine-protein kinase FLT3 (Homo sapiens) (UniProt P36888); assay: Inhibition of Flt3 at 100 uM
[30] = target: Fibroblast growth factor receptor 1 (Homo sapiens) (UniProt P11362); assay: Inhibition of FGFR1 at 100 uM
HUVEC [31] = assay: Antiangiogenic activity against HUVEC cell assessed as inhibition of tubule formation; assay type: functional, cell-based; conditions: Homo sapiens
HOS-TE85 = assay: Antitumor activity against human MNNG-HOS cell xenografted mouse assessed as tumor regression at 40 mg/kg, po after 12 days; assay type: functional, organism-based; design: dose 40 mg/kg
HCT-116 = assay: Antiproliferative activity against human HCT116 cells after 72 hrs by MTT assay; assay type: functional, cell-based; conditions: HCT-116, 72 h
[32] = target: RAC-alpha serine/threonine-protein kinase (Homo sapiens) (UniProt P31749); assay: Inhibition of PKBalpha at 100 uM
[33] = target: Serine/threonine-protein kinase Chk2 (Homo sapiens) (UniProt O96017); assay: Inhibition of CHK2 at 100 uM
[34] = target: RAF proto-oncogene serine/threonine-protein kinase (Homo sapiens) (UniProt P04049); assay: Inhibition of c-Raf at 100 uM
[35] = target: Vascular endothelial growth factor receptor 3 (Homo sapiens) (UniProt P35916); assay: Inhibition of VEGFR3 at 100 uM
[36] = target: Platelet-derived growth factor receptor beta (Homo sapiens) (UniProt P09619); assay: Inhibition of PDGFRbeta at 100 uM
MKN-45 = assay: Antiproliferative activity against human MKN45 cells after 72 hrs by MTT assay; assay type: functional, cell-based; conditions: MKN-45, 72 h

Chain of Macrophage-stimulating protein receptor (Homo sapiens) (Q04912 25-304 limits assumed): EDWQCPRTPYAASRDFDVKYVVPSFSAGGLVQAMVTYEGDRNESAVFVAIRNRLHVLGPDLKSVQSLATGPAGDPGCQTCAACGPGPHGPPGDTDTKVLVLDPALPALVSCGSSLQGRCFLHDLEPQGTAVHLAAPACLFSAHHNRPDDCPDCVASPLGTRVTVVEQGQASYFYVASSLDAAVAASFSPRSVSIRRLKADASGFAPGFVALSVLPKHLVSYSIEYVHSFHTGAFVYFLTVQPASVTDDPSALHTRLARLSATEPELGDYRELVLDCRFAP
Chain of Macrophage-stimulating protein receptor (Homo sapiens) (Q04912 310-1400 limits assumed): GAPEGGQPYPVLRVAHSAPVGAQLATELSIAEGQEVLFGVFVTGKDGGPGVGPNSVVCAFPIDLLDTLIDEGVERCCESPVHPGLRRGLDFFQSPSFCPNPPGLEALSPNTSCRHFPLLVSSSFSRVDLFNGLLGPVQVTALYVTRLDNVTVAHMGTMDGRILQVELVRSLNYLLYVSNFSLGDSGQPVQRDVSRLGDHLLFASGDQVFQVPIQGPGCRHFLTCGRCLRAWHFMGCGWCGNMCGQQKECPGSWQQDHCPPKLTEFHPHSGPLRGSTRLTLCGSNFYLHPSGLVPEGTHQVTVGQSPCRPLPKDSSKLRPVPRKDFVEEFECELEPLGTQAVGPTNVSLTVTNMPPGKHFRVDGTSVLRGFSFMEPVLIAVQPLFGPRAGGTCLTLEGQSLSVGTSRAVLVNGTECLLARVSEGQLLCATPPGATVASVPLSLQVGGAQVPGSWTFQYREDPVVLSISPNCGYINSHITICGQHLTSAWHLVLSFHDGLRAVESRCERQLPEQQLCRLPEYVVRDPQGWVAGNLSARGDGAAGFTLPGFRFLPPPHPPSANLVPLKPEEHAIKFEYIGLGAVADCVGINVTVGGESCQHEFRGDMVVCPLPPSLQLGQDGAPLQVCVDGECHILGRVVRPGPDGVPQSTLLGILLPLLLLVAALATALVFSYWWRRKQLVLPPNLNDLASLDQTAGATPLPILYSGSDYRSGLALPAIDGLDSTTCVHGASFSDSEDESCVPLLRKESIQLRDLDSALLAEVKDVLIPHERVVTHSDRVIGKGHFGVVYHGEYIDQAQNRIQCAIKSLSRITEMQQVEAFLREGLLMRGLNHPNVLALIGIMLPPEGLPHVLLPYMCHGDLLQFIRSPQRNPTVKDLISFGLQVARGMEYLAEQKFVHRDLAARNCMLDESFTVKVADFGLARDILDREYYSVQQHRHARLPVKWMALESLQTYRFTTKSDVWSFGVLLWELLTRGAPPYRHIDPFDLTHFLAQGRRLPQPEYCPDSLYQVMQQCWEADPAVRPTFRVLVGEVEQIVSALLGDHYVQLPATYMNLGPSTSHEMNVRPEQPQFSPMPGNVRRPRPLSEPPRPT
Chain of Glycogen synthase kinase-3 beta (Homo sapiens) (P49841 whole entry, looked up): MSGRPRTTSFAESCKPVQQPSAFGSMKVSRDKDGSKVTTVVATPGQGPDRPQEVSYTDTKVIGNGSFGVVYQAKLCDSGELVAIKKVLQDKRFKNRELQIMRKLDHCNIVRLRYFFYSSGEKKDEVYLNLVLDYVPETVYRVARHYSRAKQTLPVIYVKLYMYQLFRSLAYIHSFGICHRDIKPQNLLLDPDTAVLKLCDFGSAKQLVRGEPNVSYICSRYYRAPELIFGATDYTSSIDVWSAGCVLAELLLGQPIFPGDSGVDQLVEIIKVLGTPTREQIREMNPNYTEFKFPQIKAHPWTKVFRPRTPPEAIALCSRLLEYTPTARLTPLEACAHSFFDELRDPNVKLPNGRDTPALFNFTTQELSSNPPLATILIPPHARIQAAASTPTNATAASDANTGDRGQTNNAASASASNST
Chain of Aurora kinase A (Homo sapiens) (O14965 whole entry): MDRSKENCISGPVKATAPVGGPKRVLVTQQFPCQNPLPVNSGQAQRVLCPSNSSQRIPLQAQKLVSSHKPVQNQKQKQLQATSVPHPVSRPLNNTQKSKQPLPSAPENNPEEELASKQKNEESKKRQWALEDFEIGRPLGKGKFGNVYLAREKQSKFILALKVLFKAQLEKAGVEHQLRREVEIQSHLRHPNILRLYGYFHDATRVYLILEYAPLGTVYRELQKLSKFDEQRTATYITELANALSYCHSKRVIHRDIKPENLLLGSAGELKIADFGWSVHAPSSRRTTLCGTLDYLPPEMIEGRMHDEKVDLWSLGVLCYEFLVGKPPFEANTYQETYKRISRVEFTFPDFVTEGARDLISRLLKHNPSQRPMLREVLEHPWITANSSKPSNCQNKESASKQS

COc1cc2nccc(Oc3ccc(NC(=O)N4CCN(c5ccccc5)C4=O)cn3)c2cc1OC
pIC50 [1]: 7.22 | pIC50 [2]: 5.30 | pIC50 [3]: 5.89

COc1cc2nccc(Oc3ccc(NC(=O)N4CCN(c5ccccc5)C4=O)nc3)c2cc1OC
pIC50 [1]: 7.52 | pIC50 [2]: < 5.00 | pIC50 [3]: 7.70

COc1cc2nccc(Oc3ccc(NC(=O)N4CCN(c5cccc(F)c5)C4=O)cc3F)c2cc1OC
pIC50 [1]: 7.30 | pIC50 [2]: 6.70 | pIC50 [3]: 7.82

COc1cc2nccc(Oc3ccc(NC(=O)N4CCN(c5ccccc5F)C4=O)cc3F)c2cc1OC
pIC50 [1]: 7.22 | pIC50 [2]: 6.43 | pIC50 [3]: 7.70

C=CCN1CCN(C(=O)Nc2ccc(Oc3ccnc4cc(OC)c(OC)cc34)c(F)c2)C1=O
pIC50 [1]: 6.70 | IC50 [2]: Not Active | pIC50 [3]: 6.20

COc1cc2ncnc(N(C)c3ccc(NC(=O)N4CCN(c5ccccc5)C4=O)cc3F)c2cc1OC
pIC50 [1]: 5.40 | pIC50 [2]: < 5.00 | pIC50 [3]: < 5.70

COc1cc2ncnc(Oc3ccc(NC(=O)N4CCN(c5ccccc5)C4=O)cc3F)c2cc1OC
pIC50 [1]: 7.40 | pIC50 [2]: < 6.00 | pIC50 [3]: 7.52

COc1cc2nccc(Oc3ccc(NC(=O)N4CCN(c5ccccc5)C4=O)cc3)c2cc1OC
pIC50 [1]: 7.30 | pIC50 [2]: 6.62 | pIC50 [3]: 7.52

COc1cc2nccc(Oc3ccc(NC(=O)N4CCN(c5ccc(F)cc5)C4=O)cc3F)c2cc1OC
pIC50 [1]: 7.52 | pIC50 [2]: 7.05 | pIC50 [3]: 7.70

COc1cc2nccc(Oc3ccc(NC(=O)N4CCN(C5CCCCC5)C4=O)cc3F)c2cc1OC
pIC50 [1]: 6.96 | pIC50 [2]: 6.07 | pIC50 [3]: 6.68

COc1cc2nccc(Oc3ccc(NC(=O)N4CCN(N5CCCCC5)C4=O)cc3F)c2cc1OC
pIC50 [1]: 7.22 | pIC50 [2]: 6.19 | pIC50 [3]: 6.43

COc1cc2nccc(Nc3ccc(NC(=O)N4CCN(c5ccccc5)C4=O)cc3F)c2cc1OC
pIC50 [1]: 6.70 | IC50 [2]: Not Active | pIC50 [3]: 5.85

COCCOc1cc2nccc(Oc3ccc(NC(=O)N4CCN(c5ccccc5)C4=O)cc3F)c2cc1OCCOC
pIC50 [1]: 7.22 | pIC50 [2]: 7.70 | pIC50 [3]: 7.40

COc1cc2c(Oc3ccc(NC(=O)N4CCN(c5ccccc5)C4=O)cc3F)ccnc2cc1OCC1CCNCC1
pIC50 [1]: 7.40 | pIC50 [2]: 7.10 | pIC50 [3]: 7.70

COc1cc2nccc(Sc3ccc(NC(=O)N4CCN(c5ccc(F)cc5)C4=O)cc3)c2cc1OC
pIC50 [1]: 7.40 | pIC50 [2]: 7.10 | pIC50 [3]: 7.00

COc1cc2c(Oc3ccc(NC(=O)N4CCN(c5ccccc5)C4=O)cc3F)ccnc2cc1OCC1CCN(C)CC1
pIC50 [1]: 7.30 | pIC50 [2]: 6.89 | pIC50 [3]: 7.70

Cn1cnc(-c2cc3nccc(Oc4ccc(NC(=S)NC(=O)Cc5ccccc5)cc4F)c3s2)c1
pIC50 [3]: 7.59

COc1cc2nccc(Oc3ccc(NC(=O)N4CCN(c5ccc(F)cc5)C4=O)cc3)c2cc1OC
pIC50 [1]: 7.30 | pIC50 [2]: 6.82 | pIC50 [3]: 7.52

COc1cc2nccc(Oc3ccc(NC(=O)N4CCN(c5ccncc5)C4=O)cc3F)c2cc1OC
pIC50 [1]: 7.00 | pIC50 [2]: 6.20 | pIC50 [3]: 6.22

COc1cc2ncnc(Nc3ccc(NC(=O)N4CCN(c5ccccc5)C4=O)cc3F)c2cc1OC
pIC50 [1]: 6.22 | pIC50 [2]: 5.48 | pIC50 [3]: < 5.70

COc1cc2nccc(Oc3ccc(NC(=O)N4CCN(c5ccccc5)C4=O)c(F)c3)c2cc1OC
pIC50 [1]: 7.52 | pIC50 [2]: < 5.00 | pIC50 [3]: 7.30

COc1cc2nccc(Oc3ccc(NC(=S)NC(=O)Cc4ccccc4)cc3F)c2cc1OC
pIC50 [3]: 7.49

COc1cc2nccc(N(C)c3ccc(NC(=O)N4CCN(c5ccccc5)C4=O)cc3F)c2cc1OC
pIC50 [1]: 6.40 | IC50 [2]: Not Active | pIC50 [3]: 5.23

COc1cc2nccc(Oc3ccc(NC(=O)N4CCN(c5ccc(F)cc5)C4=O)cc3F)c2cc1OCCCN1CCOCC1
pIC50 [1]: 7.40 | pIC50 [2]: 7.52 | pIC50 [3]: 6.92

COc1cc2nccc(Oc3ccc(NC(=O)N4CCN(c5ccccc5)C4=O)cc3F)c2cc1OC
inhibition [4]: 0% | inhibition [5]: 0% | inhibition [6]: 92% | inhibition [7]: 6% | inhibition [8]: 0% | inhibition [9]: 0% | inhibition [10]: 0% | inhibition [11]: 100% | inhibition [12]: 7% | pIC50 (HUVEC [13]): 8.70 | pIC50 [14]: > 9.00 | half-life [15]: 4.4 h | pIC50 (HMEC): < 5.60 | inhibition [16]: 23% | inhibition [17]: 26% | inhibition (INH) (HUVEC [18]): 99.4% | inhibition [19]: 92% | inhibition [20]: 4% | pIC50 [2]: 7.05 | inhibition [21]: 100% | inhibition [22]: 96% | inhibition [23]: 0% | inhibition [24]: 12% | inhibition [25]: 0% | pIC50 [3]: 8.00 | inhibition [26]: 0% | bioavailability [27]: 22% | inhibition [28]: 94% | inhibition [29]: 72% | inhibition [30]: 11% | pIC50 (HUVEC [31]): 8.10 | Activity (HOS-TE85): Active | pIC50 (HCT-116): 6.52 | inhibition [32]: 0% | inhibition [33]: 1% | inhibition [34]: 42% | inhibition [35]: 93% | inhibition [36]: 6% | pIC50 (MKN-45): 8.10

COc1cc2nccc(Oc3ccc(NC(=O)N4CCN(c5ccccc5OC)C4=O)cc3F)c2cc1OC
pIC50 [1]: 7.30 | pIC50 [2]: 6.82 | pIC50 [3]: 7.52

COc1cc2c(Oc3ccc(NC(=O)N4CCN(c5ccccc5)C4=O)cc3F)ccnc2cc1OCCCN1CCOCC1
pIC50 [1]: 7.30 | pIC50 [2]: 7.30 | pIC50 [3]: 7.52

COc1cc2nccc(Oc3ccc(NC(=O)N4CCN(c5ccccn5)C4=O)cc3F)c2cc1OC
pIC50 [1]: 7.40 | IC50 [2]: Not Active | pIC50 [3]: 6.64

Cn1cnc(-c2cc3nccc(Oc4ccc(NC(=O)N5CCN(c6ccccc6)C5=O)cc4F)c3s2)c1
pIC50 [3]: 8.10
